Earlier results in article PMC5548886 (Cancer Medicine, 2017).

Columns and labels:
[1] = test system: advanced or metastatic melanoma; settings: phase II trial; cited from earlier work
pERK = test system: pERK; design: method as in PMID 20823850; settings: at the recommended phase II dose; cited from earlier work

Compound	response rate [1]	pERK suppression (pERK)
CNC(=O)c1ccccc1Sc1ccc2c(/C=C/c3ccccn3)n[nH]c2c1 [axitinib]	~ 19%	
CCCS(=O)(=O)Nc1ccc(F)c(C(=O)c2c[nH]c3ncc(-c4ccc(Cl)cc4)cc23)c1F [vemurafenib]		over 80%
